The NIST ThermoML archive (doi:10.1016/j.jct.2014.06.012)
Numbers after ± are expanded uncertainties.

Experiment: Molar enthalpy of transition or fusion
Conditions: Adiabatic calorimetry

- Molar enthalpy of transition or fusion (Crystal 2): 0.038 ± 0.000669 kcal/mol
- Molar enthalpy of transition or fusion (Crystal 3): 0.00306 ± 9.56e-05 kcal/mol
SMILES: O=P([O-])([O-])[O-].[Cs+].[Mn+2] [cesium manganese(II) phosphate]
